Assay results as given in the NIST ThermoML archive (doi:10.1016/j.jct.2013.04.001).

Assay: mn = molality of the nth substance listed, in mol/kg
Details: 101 kPa, Liquid; for mass density: Pycnometric method; for viscosity: Capillary tube (Ostwald / Ubbelohde) method

N=C(N)NCCC[C@H](N)C(=O)O [L-arginine] + O
Details | mass density [kg/m3] | viscosity [mPa·s]
293.15 K, m1 = 0.025 | 999.51 | –
293.15 K, m1 = 0.05 | 1000.78 | –
293.15 K, m1 = 0.075 | 1002.04 | –
293.15 K, m1 = 0.1 | 1003.3 | –
293.15 K, m1 = 0.125 | 1004.55 | –
293.15 K, m1 = 0.15 | 1005.79 | –
293.15 K, m1 = 0.175 | 1007.02 | –
293.15 K, m1 = 0.2 | 1008.25 | –
298.15 K, m1 = 0.025 | 998.35 | 0.9009
298.15 K, m1 = 0.05 | 999.62 | 0.9108
298.15 K, m1 = 0.075 | 1000.89 | 0.9207
298.15 K, m1 = 0.1 | 1002.14 | 0.93
298.15 K, m1 = 0.125 | 1003.4 | 0.9393
298.15 K, m1 = 0.15 | 1004.64 | 0.9486
298.15 K, m1 = 0.175 | 1005.88 | 0.9579
298.15 K, m1 = 0.2 | 1007.11 | 0.9668
303.15 K, m1 = 0.025 | 996.96 | 0.8062
303.15 K, m1 = 0.05 | 998.24 | 0.8145
303.15 K, m1 = 0.075 | 999.51 | 0.8225
303.15 K, m1 = 0.1 | 1000.78 | 0.8304
303.15 K, m1 = 0.125 | 1002.03 | 0.838
303.15 K, m1 = 0.15 | 1003.28 | 0.8457
303.15 K, m1 = 0.175 | 1004.53 | 0.8533
303.15 K, m1 = 0.2 | 1005.76 | 0.8609
308.15 K, m1 = 0.025 | 995.36 | 0.7267
308.15 K, m1 = 0.05 | 996.65 | 0.7336
308.15 K, m1 = 0.075 | 997.93 | 0.7403
308.15 K, m1 = 0.1 | 999.2 | 0.7471
308.15 K, m1 = 0.125 | 1000.46 | 0.7535
308.15 K, m1 = 0.15 | 1001.72 | 0.7601
308.15 K, m1 = 0.175 | 1002.97 | 0.7664
308.15 K, m1 = 0.2 | 1004.22 | 0.7726
313.15 K, m1 = 0.025 | 993.55 | 0.6593
313.15 K, m1 = 0.05 | 994.85 | 0.6652
313.15 K, m1 = 0.075 | 996.14 | 0.6708
313.15 K, m1 = 0.1 | 997.42 | 0.6764
313.15 K, m1 = 0.125 | 998.69 | 0.6818
313.15 K, m1 = 0.15 | 999.96 | 0.6873
313.15 K, m1 = 0.175 | 1001.22 | 0.6926
313.15 K, m1 = 0.2 | 1002.47 | 0.6976
318.15 K, m1 = 0.025 | 991.55 | 0.6031
318.15 K, m1 = 0.05 | 992.86 | 0.608
318.15 K, m1 = 0.075 | 994.16 | 0.6128
318.15 K, m1 = 0.1 | 995.45 | 0.6174
318.15 K, m1 = 0.125 | 996.74 | 0.622
318.15 K, m1 = 0.15 | 998.01 | 0.6266
318.15 K, m1 = 0.175 | 999.28 | 0.6311
318.15 K, m1 = 0.2 | 1000.55 | 0.6355
